This note sets out measurements from BindingDB's records for patent US11279687 (Valo Health, 2022).

The test has as its target Nicotinamide phosphoribosyltransferase (Homo sapiens, UniProt P43490). Nature of the test: Biochemical Inhibition Assay.

Nicotinamide phosphoribosyltransferase, sequence (P43490 whole entry): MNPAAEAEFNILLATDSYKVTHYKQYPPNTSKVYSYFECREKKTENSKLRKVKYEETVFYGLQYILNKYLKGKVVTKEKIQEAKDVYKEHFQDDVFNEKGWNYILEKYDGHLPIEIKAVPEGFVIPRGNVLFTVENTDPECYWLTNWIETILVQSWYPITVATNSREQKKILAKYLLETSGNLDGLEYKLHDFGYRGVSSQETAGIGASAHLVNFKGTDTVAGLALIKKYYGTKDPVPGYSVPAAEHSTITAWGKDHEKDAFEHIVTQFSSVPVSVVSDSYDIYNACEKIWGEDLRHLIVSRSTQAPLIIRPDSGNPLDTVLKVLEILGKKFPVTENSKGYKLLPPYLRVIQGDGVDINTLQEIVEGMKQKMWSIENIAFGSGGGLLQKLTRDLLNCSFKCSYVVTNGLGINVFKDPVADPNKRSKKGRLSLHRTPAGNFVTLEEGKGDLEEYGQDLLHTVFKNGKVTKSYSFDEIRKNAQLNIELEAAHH

Regarding `C[C@H]1C2C[C@H](C[C@@H]1NS(=O)(=O)c1ccc(NC(=O)NCc3cccnc3)cc1)C2(C)C` [US11279687, Compound 86], 12 nM corresponded to half-maximal inhibition (IC50).
